The record followed here is patent publication US7977374B2, “Thiophene and thiazole substituted trifluoroethanone derivatives as histone deacetylase (HDAC) inhibitors” (Istituto Di Ricerche Di Biologia Molecolare P. Angeletti SPA, priority 2005, dated 2011).

SMILES strings stand for the structures. Read-outs that look alike come from different tables or passages of the source.

Broadly, the IC50 is the point on the concentration scale where inhibition reaches its midpoint.

Common to all, as to assay type: biochemical
The target of one assay is T1, HDAC 4 (Homo sapiens, UniProt P56524).
T1 construct: The His-tagged HDAC 4, wild-type catalytic domain, was expressed in E. coli; His tag; made in house; host or cells: E. coli BL21 Star (DE3)
Put plainly: HDAC 4 Assay.

A further assay concerns the target T2, HDAC 6 (Homo sapiens, UniProt Q9UBN7).
T2 construct: made in house
T2 sequence (Q9UBN7 1-1215): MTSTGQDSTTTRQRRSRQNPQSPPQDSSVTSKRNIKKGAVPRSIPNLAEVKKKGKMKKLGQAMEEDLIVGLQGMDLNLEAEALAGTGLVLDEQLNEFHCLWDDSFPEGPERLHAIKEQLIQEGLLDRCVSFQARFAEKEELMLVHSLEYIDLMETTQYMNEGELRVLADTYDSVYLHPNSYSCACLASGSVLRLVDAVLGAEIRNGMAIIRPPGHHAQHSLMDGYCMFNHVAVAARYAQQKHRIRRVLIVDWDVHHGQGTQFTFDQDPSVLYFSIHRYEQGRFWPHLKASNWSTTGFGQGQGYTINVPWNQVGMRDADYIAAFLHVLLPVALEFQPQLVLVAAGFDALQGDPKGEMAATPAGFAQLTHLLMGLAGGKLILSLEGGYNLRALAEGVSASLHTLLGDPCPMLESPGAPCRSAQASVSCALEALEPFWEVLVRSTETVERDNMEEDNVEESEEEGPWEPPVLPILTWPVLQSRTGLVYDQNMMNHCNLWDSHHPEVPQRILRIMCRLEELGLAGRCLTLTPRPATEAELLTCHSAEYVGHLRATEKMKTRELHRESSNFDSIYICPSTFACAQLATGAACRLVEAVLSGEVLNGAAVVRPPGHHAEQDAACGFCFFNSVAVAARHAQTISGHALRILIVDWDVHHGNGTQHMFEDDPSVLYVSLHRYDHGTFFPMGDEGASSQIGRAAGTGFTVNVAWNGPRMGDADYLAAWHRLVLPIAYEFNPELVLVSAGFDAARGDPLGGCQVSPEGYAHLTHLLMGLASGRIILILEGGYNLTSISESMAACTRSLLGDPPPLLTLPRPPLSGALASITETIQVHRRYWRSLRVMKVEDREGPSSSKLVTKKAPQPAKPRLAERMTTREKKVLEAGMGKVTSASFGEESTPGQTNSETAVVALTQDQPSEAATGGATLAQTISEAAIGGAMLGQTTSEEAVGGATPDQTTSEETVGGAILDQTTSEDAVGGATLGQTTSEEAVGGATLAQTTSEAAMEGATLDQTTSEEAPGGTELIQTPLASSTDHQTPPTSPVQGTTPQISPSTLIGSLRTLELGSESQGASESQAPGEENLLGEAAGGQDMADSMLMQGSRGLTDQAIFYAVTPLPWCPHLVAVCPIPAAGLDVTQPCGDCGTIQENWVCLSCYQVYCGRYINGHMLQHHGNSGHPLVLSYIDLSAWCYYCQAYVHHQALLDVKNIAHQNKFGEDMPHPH
Put plainly: HDAC 6 Assay.

For a further assay, the target named is HDAC 1 (Homo sapiens, UniProt Q13547). Put plainly: HDAC1 activity, assays described on pages 104 to 106 of WO 2006/061638.
Chain of HDAC 1 (Q13547 whole entry): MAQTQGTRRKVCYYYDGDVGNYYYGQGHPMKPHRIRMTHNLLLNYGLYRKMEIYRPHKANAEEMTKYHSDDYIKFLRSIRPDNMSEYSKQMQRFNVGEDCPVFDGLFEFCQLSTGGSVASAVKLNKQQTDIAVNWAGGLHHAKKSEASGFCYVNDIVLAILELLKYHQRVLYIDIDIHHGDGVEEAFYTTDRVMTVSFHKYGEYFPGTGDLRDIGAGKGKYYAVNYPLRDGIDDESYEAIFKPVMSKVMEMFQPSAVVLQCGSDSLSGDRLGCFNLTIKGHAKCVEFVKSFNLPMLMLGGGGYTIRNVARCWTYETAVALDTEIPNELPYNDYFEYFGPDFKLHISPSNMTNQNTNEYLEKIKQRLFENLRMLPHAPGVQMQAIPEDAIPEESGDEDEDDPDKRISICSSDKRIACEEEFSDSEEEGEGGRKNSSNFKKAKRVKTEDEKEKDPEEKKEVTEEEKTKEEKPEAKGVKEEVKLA

T1 sequence (P56524 655-1084 limits assumed): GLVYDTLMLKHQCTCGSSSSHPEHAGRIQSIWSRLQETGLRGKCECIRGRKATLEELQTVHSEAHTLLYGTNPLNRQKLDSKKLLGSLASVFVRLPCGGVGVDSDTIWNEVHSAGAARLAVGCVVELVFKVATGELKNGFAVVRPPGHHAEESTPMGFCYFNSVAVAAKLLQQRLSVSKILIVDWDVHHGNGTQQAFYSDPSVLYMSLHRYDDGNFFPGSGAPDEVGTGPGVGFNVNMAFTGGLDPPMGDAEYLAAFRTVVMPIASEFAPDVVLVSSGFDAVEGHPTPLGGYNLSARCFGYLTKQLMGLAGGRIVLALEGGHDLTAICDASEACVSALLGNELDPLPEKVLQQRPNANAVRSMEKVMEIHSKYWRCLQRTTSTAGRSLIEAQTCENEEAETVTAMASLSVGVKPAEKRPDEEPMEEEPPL

As to `CC(/C=C/C(=O)NO)=C\[C@@H](C)C(=O)c1ccc(N(C)C)cc1` [TSA, trichostatin A], on HDAC 4 (@ 1000 nM, read-out: HDAC 4 % inh.), the inhibition at 1 µM stood at 42%.
Turning to `C[C@@H](NC(=O)c1ccc(C(=O)C(F)(F)F)s1)c1ccccc1` [Example 8, N-[(1R)-1-phenylethyl]-5-(trifluoroacetyl)thiophene-2-carboxamide], the IC50 at HDAC 6 came to 350 nM; on HDAC 4 (read-out: HDAC 4 IC50), 95 nM; at HDAC 1, 710 nM. Also, at HDAC 4 (HDAC 4 and 6 versus HDAC 1), the “selectivity for Class II HDAC (HDAC 4 and 6) over Class I (HDAC 1)” value is “showed selectivity for Class II HDAC (HDAC 4 and 6) over Class I (HDAC 1)”.
For the molecule `C[C@@H](NC(=O)c1ccc(C(=O)NO)s1)c1ccccc1` [N-hydroxy-N′-[(1R)-1-phenytethyl]thiophene-2,5-dicarboxamide], the inhibition at 0.001 µM on HDAC 6 (@ 1 nM, read-out: HDAC 6 % inh.) was 50%. Besides, the IC50 on HDAC 4 (not active up to the stated concentration, read-out: HDAC 4 IC50, Not active up to) is more than 1000 nM; on HDAC 1, 6 nM.
